This is an account of results in patent publication US7361743B2 (Pfizer Inc, priority 2004, dated 2008).

What all share (format): cell-based
One experiment concerns Bacteroides fragilis. As to the kind of experiment: Susceptibility testing, NCCLS microdilution MIC (anaerobe). To be noted: for MIC: Bacteroides fragilis. A general note: Dilution methods test growth across graded concentrations, often in twofold steps.
The next experiment relates to Staphylococcus aureus. As to the kind of experiment: Susceptibility testing, NCCLS microdilution MIC. To be noted: ATCC25923, S. aureus ATCC 25923, Example A′, read-out: MIC S. aureus.
The subject of another experiment is Haemophilus influenzae. As to the kind of experiment: Susceptibility testing, NCCLS microdilution MIC. To be noted: for MIC: Haemophilus influenzae.
In a further experiment the test system is Enterococcus faecalis. As to the kind of experiment: Susceptibility testing, NCCLS microdilution MIC. Particulars: for MIC: Enterococcus faecalis.
The mark [1] stands for this setting: ATCC25285, B. fragilis ATCC 25285, NCCLS microdilution, anaerobe, read-out: MIC B. fragilis.
[2] abbreviates: Example A, strain ATCC25285, anaerobe, 35° C. for 46-48 h, read-out: MIC against Bacteroides fragilis strain ATCC25285.
[3] abbreviates: ATCC31517, Example A, strain ATCC 31517, 16-20 h at 35° C., read-out: MIC against H. influenzae strain ATCC 31517.
Setting [4] is: ATCC31517, Example A′, strain ATCC 31517, 24 h at 35° C., read-out: MIC against H. influenzae strain ATCC 31517.
Setting [5] is: ATCC31517, H. influenzae ATCC 31517, NCCLS microdilution, read-out: MIC H. influenzae.
[6] abbreviates: ATCC29212, E. faecalis ATCC 29212, NCCLS microdilution, read-out: MIC E. faecalis.
Where [7] appears, read: Example A, strain ATCC29212, 16-20 h at 35° C., read-out: MIC against Enterococcus faecalis strain ATCC29212.
Setting [8] is: Example A′, strain ATCC29212, 24 h at 35° C., read-out: MIC against Enterococcus faecalis strain ATCC29212.
Setting [9] is: ATCC25285, B. fragilis ATCC 25285, Example A′, read-out: MIC B. fragilis.
Setting [10] is: ATCC31517, H. influenzae ATCC 31517, Example A′, read-out: MIC H. influenzae.
[11] abbreviates: ATCC29212, E. faecalis ATCC 29212, Example A′, read-out: MIC E. faecalis.

SMILES strings stand for the structures. In brackets after ≈: the same amount, converted by molar mass. Read-outs that look alike come from different tables or passages of the source.

With `CCC[C@@H]1C[C@@H](C(=O)N[C@@H]([C@H]2O[C@H](SC)[C@H](O)[C@@H](O)[C@H]2O)[C@H](C)Cl)N(C)C1` [clindamycin, reference compound], in the experiment on Bacteroides fragilis (B. fragilis ATCC 25285, Example A′), the “MIC B. fragilis” value came out at 2 µg/mL (≈ 4.71 µM). Also, the MIC with Bacteroides fragilis (setting [1]) was 2 µg/mL (≈ 4.71 µM); in the experiment with Bacteroides fragilis (setting [2]), 2 µg/mL (≈ 4.71 µM); with Staphylococcus aureus it was 0.125 µg/mL (≈ 0.294 µM); with Haemophilus influenzae (setting [3]), 8 µg/mL (≈ 18.8 µM); in the experiment with Haemophilus influenzae (setting [4]), 8 µg/mL (≈ 18.8 µM); in the experiment with Haemophilus influenzae (setting [5]), 8 µg/mL (≈ 18.8 µM). Moreover, the MIC with Enterococcus faecalis (setting [6]), in the experiment on Enterococcus faecalis (setting [7]) and in the experiment on Enterococcus faecalis (setting [8]) was more than 8 µg/mL in each case. Also, in the experiment on Haemophilus influenzae (H. influenzae ATCC 31517, Example A′), the “MIC H. influenzae” value was determined as 8 µg/mL (≈ 18.8 µM). Moreover, the “MIC E. faecalis” value in the experiment with Enterococcus faecalis (E. faecalis ATCC 29212, Example A′) is more than 8 µg/mL.

As for `CCS[C@@H]1CN[C@H](C(=O)N[C@@H]([C@H]2O[C@H](SC)[C@H](O)[C@@H](O)[C@H]2O)[C@H](C)Cl)C1` (stereo in doubt) [Example 8, 4-Ethylsulfanyl-pyrrolidine-2-carboxylic acid [2-chloro-1-(3,4,5-trihydroxy-6-methylsulfanyl-tetrahydro-pyran-2-yl)-propyl]-amide], the values for the MIC with Haemophilus influenzae (setting [4]) and with Enterococcus faecalis (setting [8]) were not below 0.5 µg/mL and not above 0.125 µg/mL, respectively.

Take `CS[C@H]1OC([C@H](NC(=O)[C@@H]2C[C@H](CC3CCC3)CCN2)[C@H](C)Cl)[C@H](O)[C@H](O)[C@H]1O` (stereo in doubt) [Example 82, 4-Cyclobutylmethyl-piperidine-2-carboxylic acid [2-chloro-1-(3,4,5-trihydroxy-6-methylsulfanyl-tetrahydro-pyran-2-yl)-propyl]-amide]: the MIC in the experiment with Bacteroides fragilis (setting [1]) was 0.25 µg/mL (≈ 0.554 µM); with Bacteroides fragilis (setting [2]), not above 0.5 µg/mL; in the experiment on Haemophilus influenzae (setting [5]), 2 µg/mL (≈ 4.43 µM); in the experiment on Enterococcus faecalis (setting [6]), 0.125 µg/mL (≈ 0.277 µM); with Enterococcus faecalis (setting [7]), not above 0.125 µg/mL.

Regarding `CCCCC1CCN[C@H](C(=O)N[C@@H]([C@H]2O[C@H](SC)[C@H](O)[C@@H](O)[C@H]2O)[C@H](C)Cl)CC1` (stereo partly shown) [Example 144, 5-Butyl-azepane-2-carboxylic acid [2-chloro-1-(3,4,5-trihydroxy-6-methylsulfanyl-tetrahydro-pyran-2-yl)-propyl]-amide], the MIC in the experiment with Bacteroides fragilis (setting [1]) is 0.125 µg/mL (≈ 0.276 µM); in the experiment on Bacteroides fragilis (setting [2]), not above 0.5 µg/mL; in the experiment with Haemophilus influenzae (setting [3]), 0.5 µg/mL (≈ 1.1 µM); in the experiment with Haemophilus influenzae (setting [5]), 0.5 µg/mL (≈ 1.1 µM); in the experiment on Enterococcus faecalis (setting [6]), 0.03 µg/mL (≈ 0.0662 µM); in the experiment with Enterococcus faecalis (setting [7]), not above 0.125 µg/mL.

Take `CCCC1CCN[C@H](C(=O)N[C@@H]([C@H]2O[C@H](SC)[C@H](O)[C@@H](O)[C@H]2O)[C@H](C)Cl)CC1` (stereo partly shown) [Example 47, 5-Propyl-azepane-2-carboxylic acid [2-chloro-1-(3,4,5-trihydroxy-6-methylsulfanyl-tetrahydro-pyran-2-yl)-propyl]-amide]: the MIC is 0.125 µg/mL (≈ 0.285 µM) in the experiment on Bacteroides fragilis (setting [1]); not above 0.5 µg/mL with Bacteroides fragilis (setting [2]); 0.5 µg/mL (≈ 1.14 µM) in the experiment with Haemophilus influenzae (setting [3]); 0.5 µg/mL (≈ 1.14 µM) in the experiment on Haemophilus influenzae (setting [5]); not below 4 µg/mL in the experiment on Haemophilus influenzae (Example A, strain not stated, 16-20 h at 35° C., read-out: MIC against Haemophilus influenzae); 0.125 µg/mL (≈ 0.285 µM) in the experiment on Enterococcus faecalis (setting [6]). Besides, the MIC with Enterococcus faecalis (setting [7]) is not above 0.125 µg/mL.

On to `CS[C@H]1OC([C@H](NC(=O)[C@@H]2C[C@H](CCC3CCC3)CCN2)[C@H](C)Cl)[C@H](O)[C@H](O)[C@H]1O` (stereo in doubt) [Example 81, 4-(2-Cyclobutyl-ethyl)-piperidine-2-carboxylic acid [2-chloro-1-(3,4,5-trihydroxy-6-methylsulfanyl-tetrahydro-pyran-2-yl)-propyl]-amide], for which the MIC in the experiment with Bacteroides fragilis (setting [1]) was 0.125 µg/mL (≈ 0.269 µM); with Bacteroides fragilis (setting [2]), not above 0.5 µg/mL; in the experiment on Haemophilus influenzae (setting [5]), 2 µg/mL (≈ 4.3 µM); in the experiment with Enterococcus faecalis (setting [6]) it was 0.03 µg/mL (≈ 0.0645 µM); in the experiment with Enterococcus faecalis (setting [7]), not above 0.125 µg/mL.

As for `CS[C@H]1O[C@H]([C@H](NC(=O)[C@@H]2C[C@H](Sc3ccc(F)cc3)CN2)[C@@H](C)O)[C@H](O)[C@H](O)[C@H]1O` (stereo in doubt) [Example 10, 4-(4-Fluoro-phenylsulfanyl)-pyrrolidine-2-carboxylic acid [2-hydroxy-1-(3,4,5-trihydroxy-6-methylsulfanyl-tetrahydro-pyran-2-yl)-propyl]-amide], the MIC was not below 0.5 µg/mL with Haemophilus influenzae (setting [4]) and not above 0.125 µg/mL in the experiment with Enterococcus faecalis (setting [8]).

Regarding `CS[C@H]1O[C@H]([C@H](NC(=O)[C@@H]2C[C@@H](CCCc3ccncc3)CN2)C(C)C)[C@H](O)[C@H](O)[C@H]1O` (stereo in doubt) [Example 3, 4-(3-Pyridin-4-yl-propyl)-pyrrolidine-2-carboxylic acid [2-methyl-1-(3,4,5-trihydroxy-6-methylsulfanyl-tetrahydro-pyran-2-yl)-propyl]-amide], the figures for the MIC with Haemophilus influenzae (setting [4]) and in the experiment with Enterococcus faecalis (setting [8]) were not below 0.5 µg/mL and not above 0.125 µg/mL, respectively.

Take `CS[C@H]1O[C@H]([C@H](NC(=O)[C@@H]2C[C@@H](CC=C(F)F)CN2)C(C)C)[C@H](O)[C@H](O)[C@H]1O` [Example 1, 4-(3,3-difluoroprop-2-ene)-pyrrolidine-2-carboxylic acid [2-methyl-1-(3,4,5-trihydroxy-6-methylsulfanyl-tetrahydro-pyran-2-yl)-propyl]-amide]: the MIC with Haemophilus influenzae (setting [4]) is not below 0.5 µg/mL.

`CCOCCC[C@@H]1CCN[C@H](C(=O)N[C@@H]([C@H]2O[C@H](SC)[C@H](O)[C@@H](O)[C@H]2O)[C@H](C)Cl)CC1` [Example 19′, 5-(3-Ethoxy-propyl)-azepane-2-carboxylic acid [2-chloro-1-(3,4,5-trihydroxy-6-methylsulfanyl-tetrahydro-pyran-2-yl)-propyl]-amide]: the MIC came out at 8 µg/mL (≈ 16.6 µM) in the experiment on Bacteroides fragilis (setting [9]), 0.125 µg/mL (≈ 0.259 µM) in the experiment with Staphylococcus aureus, 4 µg/mL (≈ 8.28 µM) in the experiment with Haemophilus influenzae (setting [10]) and 2 µg/mL (≈ 4.14 µM) in the experiment on Enterococcus faecalis (setting [11]).

For the compound `CS[C@H]1O[C@H]([C@H](NC(=O)[C@@H]2C[C@@H](C/C=C/c3ccncc3)CN2)C(C)C)[C@H](O)[C@H](O)[C@H]1O` (stereo in doubt) [Example 2, 4-(3-Pyridin-4-yl-allyl)-pyrrolidine-2-carboxylic acid [2-methyl-1-(3,4,5-trihydroxy-6-methylsulfanyl-tetrahydro-pyran-2-yl)-propyl]-amide], the MIC in the experiment with Haemophilus influenzae (setting [4]) is not below 0.5 µg/mL.

In the case of `CS[C@H]1O[C@H]([C@H](NC(=O)[C@@H]2C[C@H](SCCC(F)(F)F)CN2)[C@@H](C)O)[C@H](O)[C@H](O)[C@H]1O` [Example 11, 4-(3,3,3-Trifluoro-propylsulfanyl)-pyrrolidine-2-carboxylic acid [2-hydroxy-1-(3,4,5-trihydroxy-6-methylsulfanyl-tetrahydro-pyran-2-yl)-propyl]-amide], the figures for the MIC with Haemophilus influenzae (setting [4]) and in the experiment with Enterococcus faecalis (setting [8]) were not below 0.5 µg/mL and not above 0.125 µg/mL, respectively.

As for `CCS[C@@H]1CN[C@H](C(=O)N[C@@H]([C@H]2O[C@H](SC)[C@H](O)[C@@H](O)[C@H]2O)[C@@H](C)O)C1` [Example 5, 4-Ethylsulfanyl-pyrrolidine-2-carboxylic acid [2-hydroxy-1-(3,4,5-trihydroxy-6-methylsulfanyl-tetrahydro-pyran-2-yl)-propyl]-amide], the MIC in the experiment with Haemophilus influenzae (setting [4]) is not below 0.5 µg/mL; with Enterococcus faecalis (setting [8]), not above 0.125 µg/mL.

As to `CS[C@H]1O[C@H]([C@H](NC(=O)[C@@H]2CC[C@H](CCCOCCF)CCN2)[C@H](C)Cl)[C@H](O)[C@H](O)[C@H]1O` [Example 20′, 5-[3-(2-Fluoro-ethoxy)-propyl]-azepane-2-carboxylic acid [2-chloro-1-(3,4,5-trihydroxy-6-methylsulfanyl-tetrahydro-pyran-2-yl)-propyl]-amide], the MIC in the experiment on Bacteroides fragilis (setting [9]) is 8 µg/mL (≈ 16 µM); with Staphylococcus aureus, 0.125 µg/mL (≈ 0.249 µM); in the experiment with Haemophilus influenzae (setting [10]), 2 µg/mL (≈ 3.99 µM); in the experiment on Enterococcus faecalis (setting [11]), 2 µg/mL (≈ 3.99 µM).

As for `CCCCS[C@@H]1CN[C@H](C(=O)N[C@@H]([C@H]2O[C@H](SC)[C@H](O)[C@@H](O)[C@H]2O)[C@@H](C)O)C1` (stereo in doubt) [Example 4, 4-Butylsulfanyl-pyrrolidine-2-carboxylic acid [2-hydroxy-1-(3,4,5-trihydroxy-6-methylsulfanyl-tetrahydro-pyran-2-yl)-propyl]-amide], the MIC in the experiment on Haemophilus influenzae (setting [4]) was not below 0.5 µg/mL; with Enterococcus faecalis (setting [8]), not above 0.125 µg/mL.

With `CS[C@H]1O[C@H]([C@H](NC(=O)[C@@H]2C[C@H](SCCC(C)C)CN2)[C@@H](C)O)[C@H](O)[C@H](O)[C@H]1O` (stereo in doubt) [Example 12, 4-(3-Methyl-butylsulfanyl)-pyrrolidine-2-carboxylic acid [2-hydroxy-1-(3,4,5-trihydroxy-6-methylsulfanyl-tetrahydro-pyran-2-yl)-propyl]-amide], in the experiment on Haemophilus influenzae (setting [4]), the MIC was not below 0.5 µg/mL.

Consider `CCCCCC1CCN[C@H](C(=O)N[C@@H]([C@H]2O[C@H](SC)[C@H](O)[C@@H](O)[C@H]2O)[C@H](C)Cl)CC1` (stereo partly shown) [Example 145, 5-Pentyl-azepane-2-carboxylic acid [2-chloro-1-(3,4,5-trihydroxy-6-methylsulfanyl-tetrahydro-pyran-2-yl)-propyl]-amide], for which the MIC in the experiment on Bacteroides fragilis (setting [1]) is 0.5 µg/mL (≈ 1.07 µM); in the experiment on Bacteroides fragilis (setting [2]), not above 0.5 µg/mL; in the experiment on Haemophilus influenzae (setting [3]), 0.5 µg/mL (≈ 1.07 µM); in the experiment with Haemophilus influenzae (setting [5]), 0.5 µg/mL (≈ 1.07 µM); in the experiment on Enterococcus faecalis (setting [6]), 0.125 µg/mL (≈ 0.268 µM); in the experiment with Enterococcus faecalis (setting [7]), not above 0.125 µg/mL.
